# Measured values as given in US5710150A, “Benzazepine derivative, pharmaceutical composition thereof, and intermediate thereof” (Yamanouchi Pharmaceutical Co., Ltd., priority 1993, dated 1998).
# Assays:
# [1] = Water diuresis action in conscious rats (oral administration); assay type: in vivo, male Wister rats; details: 3 mg/kg oral
# Protocol: Each compound to be tested was suspended in 0.5% methylcellulose solution and orally administered in a dose of 3 mg/kg to male Wister rats (body weight, 270 to 300 g) which have been subjected to fasting with no water for 16 to 20 hours. Using a metabolic cage, urine samples were collected just after the administration of each test sample until 4 hours thereafter to measure the amount of urine.
# [2] = target: T1, arginine vasopressin V1 receptor (Rattus norvegicus, UniProt P30560); assay: V1 receptor binding assay ([3H]-Arg-vasopressin, rat liver membrane); details: for antagonism on V1 receptor (in words): compared with OPC-31260 and OPC-21268; for Ki: read-out: Binding activity on arginine vasopressin V1 receptor (pKi) (converted)
# T1 construct: A rat liver membrane sample was prepared; from tissue; host or cells: rat liver membranes
# T1 sequence (P30560 whole entry): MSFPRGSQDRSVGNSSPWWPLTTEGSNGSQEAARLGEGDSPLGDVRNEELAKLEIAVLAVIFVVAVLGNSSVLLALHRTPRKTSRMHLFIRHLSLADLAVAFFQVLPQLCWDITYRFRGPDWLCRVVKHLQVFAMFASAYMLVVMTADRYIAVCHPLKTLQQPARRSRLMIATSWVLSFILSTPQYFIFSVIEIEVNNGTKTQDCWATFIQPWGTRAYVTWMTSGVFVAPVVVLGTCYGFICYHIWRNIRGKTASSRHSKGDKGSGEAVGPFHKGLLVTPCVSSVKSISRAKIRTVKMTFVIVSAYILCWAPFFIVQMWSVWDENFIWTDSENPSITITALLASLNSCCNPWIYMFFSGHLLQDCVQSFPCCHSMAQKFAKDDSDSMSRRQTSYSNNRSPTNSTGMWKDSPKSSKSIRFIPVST
# Protocol: (1) V1 receptor binding assay
# A rat liver membrane sample was prepared in accordance with the method of Nakamura et al. (J. Biol. Chem., 258, 9283 (1983)), and [^3 H]-Arg-vasopressin (2 nM, specific activity=75.8 Ci/mmol), 70 μg of the membrane sample and each drug to be tested (10^-8 to 10^-4 M) were incubated at 30° C. for 30 minutes in 250 μl of 100 mM Tris-HCl buffer (pH=8.0) containing 5 mM of magnesium chloride, 1 mM of ethylenediaminetetraacetic acid (EDTA) and 0.1% of bovine serum albumin (BSA). Thereafter, the incubation solution was sucked off using a cell harvester and free ligand and excess buffer were removed by passing the reaction mixture through a glass filter (GF/B), thereby trapping receptor-bound labeled ligand on the glass filter. The glass filter was taken out, thoroughly dried and then mixed with a liquid scintillation cocktail, and the amount of the membrane-bound [^3 H]-vasopressin was measured using a liquid scintillation counter to calculate the inhibition ratio by the following formula. [formula] C1 : amount of [^3 H]-vasopressin bound to the membrane in the coexistence of known amount of each drug to be tested and [^3 H]-vasopressin
# C0 : amount of [^3 H]-vasopressin bound to the membrane when the drug to be tested was not added
# B1 : amount of [^3 H]-vasopressin bound to the membrane in the presence of excess vasopressin (10^-6 M)
# [formula] [L]: concentration of radioactive ligand KD: dissociation constant calculated from Scatchard plot
# Negative logarithm of the thus calculated Ki value was used as pKi value.
# [3] = target: arginine vasopressin V2 receptor (Oryctolagus cuniculus, UniProt G1TA00); assay: V2 receptor binding assay ([3H]-Arg-vasopressin, rabbit renal medulla membrane); details: for antagonism on V2 receptor (in words): compared with OPC-31260 and OPC-21268; for Binding activity on arginine vasopressin V2 receptor (pKi): rabbit renal medulla membrane, [3H]-Arg-vasopressin 2 nM
# Sequence of arginine vasopressin V2 receptor (G1TA00 78-446): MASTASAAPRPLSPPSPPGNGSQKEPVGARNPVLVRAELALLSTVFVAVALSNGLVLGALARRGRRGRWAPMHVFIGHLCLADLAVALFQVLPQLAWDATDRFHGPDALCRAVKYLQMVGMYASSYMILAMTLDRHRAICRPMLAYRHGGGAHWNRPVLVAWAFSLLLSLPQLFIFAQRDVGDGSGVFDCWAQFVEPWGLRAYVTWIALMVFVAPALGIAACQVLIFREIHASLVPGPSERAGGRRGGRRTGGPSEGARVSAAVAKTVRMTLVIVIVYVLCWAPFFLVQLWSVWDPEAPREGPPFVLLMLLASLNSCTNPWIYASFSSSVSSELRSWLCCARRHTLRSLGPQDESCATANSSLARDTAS
# [4] = tested on: V1; assay: V1 antagonism in conscious rats (oral administration), AVP-induced diastolic blood pressure increase; assay type: in vivo, male Wister rats; details: 1 mg/kg oral, 30 minutes to 6 hours after administration, AVP 30 mU/kg i.v.
# [5] = rat liver membrane, [3H]-Arg-vasopressin 2 nM, 30° C., 30 minutes, pH 8.0
SMILES,"amount of urine compared with solvent-administered group, 2 to 4 hours (in words) ([1]; 2 hours to 4 hours after administration)","amount of urine relative to solvent-administered group, 0 to 2 hours ([1]; just after administration to 2 hours later)",antagonism on V1 receptor (in words) [2],"Ki [2, 5]",antagonism on V2 receptor (in words) [3],Binding activity on arginine vasopressin V2 receptor (pKi) [3],Pressure increment by AVP (before compound = 100%) [4],"Binding activity on arginine vasopressin V1 receptor (pKi) [2, 5]"
"Cc1ccccc1C(=O)Nc1ccc(C(=O)N2CCCC(N(C)C)c3ccccc32)cc1 (centres unmarked) [Comparative compound (1), OPC-31260]",almost the same as that in the solvent-administered group,11 times,–,–,–,–,–,–
"CN1CCN(C(=O)/C=C2/c3ccccc3N(C(=O)c3ccc(NC(=O)c4ccccc4-c4ccccc4)cc3)CCC2(F)F)CC1.Cl [Example 11, (Z)-4'-[[4,4-difluoro-5-(4-methyl-1-piperazinyl)carbonylmethylene-2,3,4,5-tetrahydro-1H-1-benzazepin-1-yl]carbonyl]-2-phenylbenzanilide hydrochloride]",–,–,excellent antagonisms on both V1 and V2 receptors,1290 pM,excellent antagonisms on both V1 and V2 receptors,9.06,≤ 50%,–
"CN(C)C1CCN(C(=O)/C=C2/c3ccccc3N(C(=O)c3ccc(NC(=O)c4ccccc4-c4ccccc4)cc3)CCC2(F)F)CC1.Cl [Example 13, (Z)-4'-[[4,4-difluoro-5-[[(4-dimethylaminopiperidino)carbonyl]methylene]-2,3,4,5-tetrahydro-1H-1-benzazepin-1-yl]carbonyl]-2-phenylbenzanilide hydrochloride]",–,–,excellent antagonisms on both V1 and V2 receptors,79.4 pM,excellent antagonisms on both V1 and V2 receptors,9.58,≤ 50%,–
"CN1CCCN(C(=O)/C=C2/c3ccccc3N(C(=O)c3ccc(NC(=O)c4ccccc4-c4ccccc4)cc3)CCC2(F)F)CC1.Cl [Example 24, (Z)-4'-[[4,4-difluoro-5-[[(4-methylhexahydro-1,4-diazepin-1-yl)carbonyl]methylene]-2,3,4,5-tetrahydro-1H-1-benzazepin-1-yl]carbonyl]-2-phenylbenzanilide hydrochloride]",–,–,excellent antagonisms on both V1 and V2 receptors,31.6 pM,excellent antagonisms on both V1 and V2 receptors,9.26,≤ 50%,–
"O=C(/C=C1/c2ccccc2N(C(=O)c2ccc(NC(=O)c3ccccc3-c3ccccc3)cc2)CCC1(F)F)NCc1ccccc1 [Example 127, (Z)-4'-[[4,4-difluoro-5-[(N-benzylcarbamoyl)methylene]-2,3,4,5-tetrahydro-1H-1-benzazepin-1-yl]carbonyl]-2-phenylbenzanilide]",–,–,–,1740 pM,–,8.19,–,–
"CN(C)C(=O)/C=C1/c2ccccc2N(C(=O)c2ccc(NC(=O)c3ccccc3-c3ccccc3)cc2)CCC1(F)F [Example 129, (Z)-4'-[[5-(N,N-dimethylcarbamoylmethylene)-4,4-difluoro-2,3,4,5-tetrahydro1H-1-benzazepin-1-yl]carbonyl]-2-phenylbenzanilide]",–,–,–,479 pM,–,8.24,–,–
O=C(Nc1ccc(C(=O)N2CCC(F)(F)/C(=C\C(=O)N3CCCC3)c3ccccc32)cc1)c1ccccc1-c1ccccc1 [Example 131],–,–,–,708 pM,–,7.99,–,–
"O=C(Nc1ccc(C(=O)N2CCC(F)(F)/C(=C\C(=O)N3CCOCC3)c3ccccc32)cc1)c1ccccc1-c1ccccc1 [Example 133, (Z)-4'-[(4,4-difluoro-5-morpholinocarbonylmethylene-4,4-difluoro-2,3,4,5-tetrahydro-1H-1-benzazepin-1-yl)carbonyl]-2-phenylbenzanilide]",–,–,–,363 pM,–,8.28,–,–
"O=C(/C=C1/c2ccccc2N(C(=O)c2ccc(NC(=O)c3ccccc3-c3ccccc3)cc2)CCC1(F)F)NCCO [Example 134, (Z)-4'-[[4,4-difluoro-5-[N-(2-hydroxyethyl)carbamoylmethylene]-4,4-difluoro-2,3,4,5-tetrahydro-1H-1-benzazepin-1-yl]carbonyl]-2-phenylbenzanilide]",–,–,–,–,–,8.94,–,9.50
"COCCNC(=O)/C=C1/c2ccccc2N(C(=O)c2ccc(NC(=O)c3ccccc3-c3ccccc3)cc2)CCC1(F)F [Example 135, (Z)-4'-[[4,4-difluoro-5-[N-(2-methoxyethyl)carbamoylmethylene]-2,3,4,5-tetrahydro-1H-1-benzazepin-1-yl]carbonyl]-2-phenylbenzanilide]",–,–,–,195 pM,–,8.11,–,–
